Entries after “also recorded” stand apart in the source; their conditions may differ. Read-outs that look alike come from different tables or passages of the source.
Assays:
[1] = target: T1, full-length AMPK (rat His-α1, β1, γ1) (Rattus norvegicus, UniProt P54645+P80385); assay: MANT-ADP fluorescence displacement (binding) assay, full-length AMPK; conditions: for displacement of MANT-ADP: full-length AMPK compared with regulatory fragment: compared in parallel; for IC50: full-length AMPK
T1 construct: Tricistronic vectors encoding full-length AMPK (rat His-α1, β1, γ1); made in house; host or cells: Rosetta cells (E. coli), tricistronic vector, gift of Dr. Uwe Schlattner
Method: (§1) Except where otherwise noted, assays were performed with the following conditions: 0.5 μM full-length AMPK (130 kDa) or 0.5 μM regulatory fragment (66.7 kDa), 0.1 μM MANT-ADP, 10 mM Tris-HCl (pH 8), 0.45% DMSO (vehicle and negative control), and 5 μM ADP (positive control). Automated assays were assembled in two steps. First, a NanoQuot (BioTek) was used to dispense 11 μL of master mix (protein, MANT-ADP, and Tris-HCl) per well in black, low volume 384-well plates (Corning-3676). Next, a Biomek NX workstation (Beckman-Coulter, Brea, Calif.) equipped with pintools (VP Scientific, San Diego Calif.) was used to transfer 50 nL of controls (columns 1, 2, 23, and 24) and small molecules (4.5 μM final). Controls and library molecules were transferred from Axygen 384-well rigid PCR plates (Cat no. 321-67-051) at 221× concentration for single-concentration screening. Plates were shaken for 10 minutes prior to reading.
(§2) Fluorescence emission spectra of MANT-ADP were collected using a PerkinElmer EnSpire plate reader with an excitation wavelength of 360 nm. Background fluorescence from protein was subtracted from the raw data prior to plotting MANT-ADP's fluorescence in the presence of protein. Fluorescence detection for assay development and screening was performed on either a BMG Pherastar Plus (360/10 excitation and 460/10 emission filters) or a PerkinElmer EnVision (355/40 excitation and 460/25 emission filters), depending on equipment availability. Relative fluorescence units (RFUs) were recorded at room temperature.
(§3) ScreenAble (ScreenAble Solutions, Chapel Hill, N.C.) high-throughput screening software was utilized for merging screening data and chemical structure, for statistical design of experiments, and hit selection. GraphPad Prism was used for non-linear regression analysis of dose response data.
(§4) Binding assays. Except where otherwise noted, assay assembly and data analysis were completed according to published methods. Binding assays were manually assembled, with the exception of the similarity screen. Automated assembly of the similarity screen was completed according to published methods. Analogs were cherry-picked from a 10 mM Asinex small molecule library and a 0.5 mM kinase focused library, which has been described previously (4). Molecules were screened at a final concentration of 45 and 2.3 μM, respectively.

purified p-AMPK = target: T2, purified p-AMPK (Rattus norvegicus, UniProt P54645+P80385); assay: Kinase assay with purified p-AMPK and GST-ACC peptide; type: biochemical
T2 construct: Full-length AMPK intended for use in phosphatase and kinase assays was purified, mixed with GST-CaMKKβ; made in house; host or cells: Rosetta cells (E. coli); phosphorylated in vitro with GST-CaMKKβ, which was then removed on glutathione resin
Method: Kinase assays. Assay conditions were adapted from published methods (17). The final assay buffer was comprised of 40 mM Hepes (pH 7.4) 5 mM MgCl2, 200 μM ATP, 75 mM NaCl, 0.01% Triton X-100, 1 mM DTT, and 0.45% DMSO (vehicle). Because some analogs had poor solubility at high concentrations, all analogs and controls were diluted in assay buffer and centrifuged (1 min, 5000 rpm, 4° C.) to remove insoluble matter. GST-ACC peptide and p-AMPK were thawed, diluted in assay buffer, and then added to the supernatant at final concentrations of 900 and 0.1 ng/μL, respectively. Kinase assays were assembled on ice; reactions were allowed to proceed for 30 minutes at room temperature. Reactions were stopped by the addition of loading buffer and 48 mM DTT followed promptly by freezing at −20° C.
(§5) Western analyses. Protein samples were boiled for 15 minutes in loading buffer and DTT prior to SDS-PAGE. Blots for protein-based assays were sequentially incubated with the following: 5% BSA in 1× TBS (1 hr, 22° C.), 1:1000 rabbit anti-human p-AMPK-α antibody or p-ACC antibody (2 hr, 22° C.), and 1:10,000 donkey anti-rabbit secondary antibody (1 hr, 22° C.). Blots for phosphatase assays were probed a second time using 1:100 mouse anti-human total AMPK antibody (overnight, 4° C.; from UNC Antibody Core Facility) followed by 1:10,000 donkey anti-mouse secondary antibody (1 hr, 22° C.). Blots for clarified cell lysates were sequentially probed for p-AMPK (1:500 dilution, overnight at 4° C. or 4 hours at 22° C.), total ACC (1:1000 dilution, overnight at 4° C. or 4 hours at 22° C.), and tubulin (1:10,000 dilution, 1 hr, 22° C.); a parallel set of blots were probed for p-ACC (1:500 dilution, overnight at 4° C. or 4 hours at 22° C.), total AMPK (1:1000 dilution, overnight at 4° C. or 4 hours at 22° C.), and tubulin (1:10,000 dilution, 1 hr, 22° C.). Because phosphorylated and total protein were imaged on separate membranes, the signals were normalized to the internal tubulin signal prior to calculating the ratio of phosphorylated to total protein. Scanning and imaging were completed according to published methods.

[2] = target: T3, p-AMPK in the presence of PP2C (Rattus norvegicus, UniProt P54645+P80385); assay: Phosphatase assay: protection of p-AMPK from dephosphorylation by PP2C; type: biochemical; conditions: p-AMPK/total AMPK ratio normalized to no-PP2C control
T3 construct: Full-length AMPK intended for use in phosphatase and kinase assays was purified, mixed with GST-CaMKKβ; made in house; host or cells: Rosetta cells (E. coli); phosphorylated in vitro with GST-CaMKKβ, which was then removed
Method: Phosphatase assays. Assay conditions were adapted from published methods (18). In short, the final assay buffer was compromised of 50 mM Tris (pH 7.5), […], 0.01% Triton X-100, 1 mM DTT, and 0.45% DMSO (vehicle). Because some analogs had poor solubility at high concentrations, all analogs and controls were diluted in assay buffer and centrifuged (1 min, 5000 rpm, 4° C.) to remove insoluble matter. PP2C and p-AMPK were added to the supernatant at final concentrations of 2 and 3 ng/μL, respectively. Phosphatase reactions were allowed to proceed for 30 minutes at 37° C. Reactions were stopped by the addition of loading buffer and 48 mM DTT followed promptly by freezing at −20° C.
Western analyses. Protein samples were boiled for 15 minutes in loading buffer and DTT prior to SDS-PAGE. Blots for protein-based assays were sequentially incubated with the following: 5% BSA in 1× TBS (1 hr, 22° C.), 1:1000 rabbit anti-human p-AMPK-α antibody or p-ACC antibody (2 hr, 22° C.), and 1:10,000 donkey anti-rabbit secondary antibody (1 hr, 22° C.). Blots for phosphatase assays were probed a second time using 1:100 mouse anti-human total AMPK antibody (overnight, 4° C.; from UNC Antibody Core Facility) followed by 1:10,000 donkey anti-mouse secondary antibody (1 hr, 22° C.). […]

[3] = test system: p-ACC levels in HEK cells; assay: Cell-intact assay, p-ACC levels in HEK cells; type: cell-based, human; conditions: for p-ACC levels (substrate phosphorylation), pre-conditioned HEK cells: serum starvation followed by 10% serum, 1 hour
Method: (§6) Cell-intact assays. HEK cells were grown in DMEM with 10% FBS and 1% penicillin/streptomycin at 37° C. A subset of plates was serum-starved for 5 hours on the day of the experiment. After 5 hours of serum-starvation, cells were treated with either controls (0.2% DMSO, A-769662, or Compound C) or small molecules in the absence of serum for an additional hour prior to lysis. Another subset of plates was serum-starved for 6 hours and then treated with either controls or small molecules for 1 hour in the presence of 10% FBS. A time course of both AMPK and ACC phosphorylation in HEK cells during serum starvation has already been published (Pirkmajer S, Chibalin A V. Serum starvation: caveat emptor. American journal of physiology Cell physiology. 2011 August; 301(2):C272-9. PubMed PMID: 2161361).
(§7) After incubating in the presence of drugs for one hour, cells were washed three times with ice-cold PBS and lysed according to published methods (Kazgan N, Williams T, Forsberg L J, Brenman J E. Identification of a nuclear export signal in the catalytic subunit of AMP-activated protein kinase. Molecular biology of the cell. 2010 Oct. 1; 21(19):3433-42. PubMed PMID: 20685962. Pubmed Central PMCID: 2947478). Lysates were centrifuged at 16,000 g (10 minutes, 4° C.). Clarified supernatant (30 μL) was then transferred to 10 μL 4X loading buffer and 2 μL 1 M DTT. Samples were immediately frozen at −20° C. The concentration of protein in diluted clarified supernatant was calculated using a DC protein assay kit (BioRad) prior to western analyses.
as §5

[4] = test system: p-AMPK levels in HEK cells; assay: Cell-intact assay, p-AMPK levels in HEK cells; type: cell-based, human; conditions: serum starvation followed by 10% serum; 1 hour
Method: as §6
as §7, with “Lysates were centrifuged at 16,000 g (10 minutes, 4° C.). Clarified supernatant (30 μL) was then transferred to 10 μL 4X loading buffer and 2 μL 1 M DTT. Samples were immediately frozen at −20° C.” left out, “analyses. […]” for “analyses.”

HEK cells = assay: Cell-intact assay, attachment of HEK cells to tissue culture plates; type: cell-based, human; conditions: absence of serum
Method: as §6

[5] = target: T4, AMPK regulatory fragment (rat His-α1, 396-548; human β2, 187-272; rat γ1) (Rattus norvegicus, UniProt P80385); assay: MANT-ADP fluorescence displacement (binding) assay, AMPK regulatory fragment; conditions: MANT-ADP with no protein = 100% inhibition, read-out: IC50, inhibition of the increase in MANT-ADP fluorescence
T4 construct: rat His-α1, 396-548; human β2, 187-272; rat γ1; made in house; host or cells: Rosetta cells (E. coli), tricistronic vector, gift of Dr. Steve Gamblin
Method: as §1, §2, §3, §4

full-length His-AMPK = target: T5, full-length His-AMPK (Rattus norvegicus, UniProt P54645+P80385); assay: Isothermal titration calorimetry; type: binding; conditions: both sites; 5 mM phosphate buffer (pH 7.4), room temperature; n=1; read-out: calculated dissociation constants
T5 construct: Tricistronic vectors encoding full-length AMPK (rat His-α1, β1, γ1); made in house; host or cells: Rosetta cells (E. coli), tricistronic vector, gift of Dr. Uwe Schlattner
Method: ITC. A MicroCal Auto-iTC200 system (GE Healthcare, Pittsburgh, Pa.) was used to study binding interactions between ADP and full-length His-AMPK at room temperature in the presence of 5 mM phosphate buffer (pH 7.4). To decrease the ionic strength of the buffer, full-length AMPK frozen in 50 mM phosphate buffer was thawed, diluted in 5 mM phosphate buffer (pH 7.4) and then concentrated via centrifugal filtration. At the start of the ITC experiment, the concentrations of His-AMPK (in the sample cell) and ADP (in the syringe) were 70 μM and 1.4 mM, respectively.

T1 sequence (P54645 with tags, fused parts or gaps limits assumed): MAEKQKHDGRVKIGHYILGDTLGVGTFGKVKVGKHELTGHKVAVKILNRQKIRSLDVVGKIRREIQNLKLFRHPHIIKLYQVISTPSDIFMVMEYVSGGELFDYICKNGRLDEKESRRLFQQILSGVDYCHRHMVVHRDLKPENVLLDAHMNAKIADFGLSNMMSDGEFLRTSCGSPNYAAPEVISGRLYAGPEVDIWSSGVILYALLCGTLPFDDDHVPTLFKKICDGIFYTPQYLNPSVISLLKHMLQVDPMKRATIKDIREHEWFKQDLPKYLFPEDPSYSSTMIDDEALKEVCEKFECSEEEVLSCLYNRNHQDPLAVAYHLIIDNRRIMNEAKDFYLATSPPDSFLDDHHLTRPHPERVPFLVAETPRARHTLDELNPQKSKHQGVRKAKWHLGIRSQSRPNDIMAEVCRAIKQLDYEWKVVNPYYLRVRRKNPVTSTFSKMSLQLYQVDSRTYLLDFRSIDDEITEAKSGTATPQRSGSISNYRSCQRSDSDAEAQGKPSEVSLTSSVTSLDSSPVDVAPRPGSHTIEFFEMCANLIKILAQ
T1 sequence (P80386 whole entry partner, the tested form may be a part): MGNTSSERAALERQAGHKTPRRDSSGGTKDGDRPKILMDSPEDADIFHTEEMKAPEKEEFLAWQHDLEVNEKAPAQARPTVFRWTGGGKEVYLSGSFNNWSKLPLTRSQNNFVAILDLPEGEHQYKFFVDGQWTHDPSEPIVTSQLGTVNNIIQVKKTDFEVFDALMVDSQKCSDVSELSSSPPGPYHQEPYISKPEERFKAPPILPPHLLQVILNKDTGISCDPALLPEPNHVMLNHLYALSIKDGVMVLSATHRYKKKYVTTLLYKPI
T1 sequence (P80385 whole entry, the tested form may be a part): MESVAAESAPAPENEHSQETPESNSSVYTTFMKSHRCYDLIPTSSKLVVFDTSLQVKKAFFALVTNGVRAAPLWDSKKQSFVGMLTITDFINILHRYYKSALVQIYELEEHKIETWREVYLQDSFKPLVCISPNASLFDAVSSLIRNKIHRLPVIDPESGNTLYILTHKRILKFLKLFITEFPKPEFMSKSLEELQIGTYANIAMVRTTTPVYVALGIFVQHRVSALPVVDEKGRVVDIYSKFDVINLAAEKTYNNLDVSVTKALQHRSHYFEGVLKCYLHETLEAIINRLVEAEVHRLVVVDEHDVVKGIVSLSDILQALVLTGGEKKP
T2 sequence (P54645 with tags, fused parts or gaps limits assumed): as the sequence (P54645 with tags, fused parts or gaps limits assumed) above
T2 sequence (P80386 whole entry partner): as the sequence (P80386 whole entry partner, the tested form may be a part) above
T2 sequence (P80385 whole entry): as the sequence (P80385 whole entry, the tested form may be a part) above
T5 sequence (P54645 with tags, fused parts or gaps limits assumed): as the sequence (P54645 with tags, fused parts or gaps limits assumed) above
T5 sequence (P80386 whole entry partner): as the sequence (P80386 whole entry partner, the tested form may be a part) above
T5 sequence (P80385 whole entry): as the sequence (P80385 whole entry, the tested form may be a part) above
T3 sequence (P54645 with tags, fused parts or gaps limits assumed): as the sequence (P54645 with tags, fused parts or gaps limits assumed) above
T3 sequence (P80386 whole entry partner): as the sequence (P80386 whole entry partner, the tested form may be a part) above
T3 sequence (P80385 whole entry): as the sequence (P80385 whole entry, the tested form may be a part) above
T4 sequence (P54645 407-559 partner limits assumed): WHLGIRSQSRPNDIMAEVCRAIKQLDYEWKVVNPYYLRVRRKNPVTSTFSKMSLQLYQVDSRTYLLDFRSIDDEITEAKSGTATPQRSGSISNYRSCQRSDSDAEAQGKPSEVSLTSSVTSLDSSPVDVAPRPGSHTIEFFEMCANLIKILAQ
T4 sequence (O43741 187-272 partner limits assumed): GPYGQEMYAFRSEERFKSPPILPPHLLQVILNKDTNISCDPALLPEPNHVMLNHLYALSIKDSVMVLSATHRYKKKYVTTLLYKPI
T4 sequence (P80385 whole entry, the tested form may be a part): as the sequence (P80385 whole entry, the tested form may be a part) above

SMILES | displacement of MANT-ADP: full-length AMPK compared with regulatory fragment [1] | inhibition of the protein-bound signal of MANT-ADP in the triplicate similarity screen ([1]; final concentration 45 μM) | IC50 ([1]; Example 4, read-out: binding IC50) | activity of purified p-AMPK (phosphorylation of GST-ACC peptide), dose response (purified p-AMPK; compared to DMSO control) | dose response when repeated with an additional concentration at 1 μM (purified p-AMPK; high p-GST-ACC peptide at both 1 and 40 μM, data not shown) | substrate phosphorylation at higher doses (purified p-AMPK; higher doses) | protection of p-AMPK from dephosphorylation [2] | p-ACC levels, serum-treated HEK cells ([3]; 10% serum) | p-ACC levels (substrate phosphorylation), pre-conditioned HEK cells [3] | p-AMPK levels, pre-conditioned HEK cells [4] | detachment of cells from tissue culture plates (HEK cells) | IC50 ([1]; MANT-ADP with no protein = 100% inhibition, read-out: IC50, inhibition of the increase in MANT-ADP fluorescence) | IC50 [5] | Kd (full-length His-AMPK)
O=C1/C(=C/c2ccc(-c3ccc(Cl)c(Cl)c3)o2)SC(=S)N1CCS(=O)(=O)O [BAS 02250954, 2-[(5Z)-5-{[5-(3,4-Dichlorophenyl)furan-2-yl]methylidene}-4-oxo-2-sulfanylidene-1,3-thiazolidin-3-yl]ethane-1-sulfonic acid] | greater concentration | reproducibly inhibited | < 5000 nM | significantly inhibited substrate phosphorylation at low doses; also recorded: inhibits substrate phosphorylation | complete U-shaped dose response | permitted substrate phosphorylation | protected p-AMPK from dephosphorylation | decreased substrate phosphorylation | no change in substrate phosphorylation; also recorded: does not increase | high levels of p-AMPK | caused many cells to detach |  |  | 
Nc1ncnc2c1ncn2[C@@H]1O[C@H](COP(=O)(O)OP(=O)(O)O)[C@@H](O)[C@H]1O [ADP, adenosine diphosphate, reference compound] | same binding IC50; also recorded: same concentration |  |  |  |  |  |  |  |  |  |  | 300 nM | 400 nM | 13000 nM
N#Cc1c(O)c2c(-c3ccc(-c4ccccc4O)cc3)csc2[nH]c1=O [Example A-769662, reference compound] |  |  |  |  |  |  |  |  | increased | increased |  |  |  | 

Reference: US20160176859A1, “High-Throughput Assay for Identifying Small Molecules that Modulate AMP-activated Protein Kinase (AMPK)” (North Carolina Central University, priority 2013, published 2016)
